Consider 4 compounds from patent publication US9540325B2, “N1-cyclic amine-N5-substituted phenyl biguanide derivatives, methods of preparing the same and pharmaceutical composition comprising the same” (Immunomet Therapeutics, Inc., priority 2011, dated 2017).

In experiment [1] the test system is Snail. The experiment can be described thus: EMT inhibitory effect by inhibition of Snail expression (immunoblotting) in MCF7 cells. It is filed as cell-based, human. As to conditions: MCF7, 48 hours, untreated control = 100%. Here is the method: Cells undergoing EMT owing to various cytokines and growth factors can acquire motility and thus move a distance to form tumors in new tissues. Therefore, the metastasis of cancer cells can be inhibited by controlling expression of EMT-related transcription factors to hinder EMT. Based on these facts, the activities of biguanide derivatives that inhibit Snail expression, which is a transcription factor inducing EMT in the MCF7 cell line derived from human breast cancer, were measured and simple experimental methods are described, as follows.
MCF7 cells derived from human breast cancer (commercially available from Korean Cell Line Bank) were cultured in a DMEM medium supplemented with 10% (v/v) fetal bovine serum (commercially available from Gibco Life Technologies (US)), put into a 6-well plate so that the number of cultured cells could amount to approximately 5×10^5 cells per well, and then incubated in an incubator supplied with 5% CO2 (culture temperature: 37° C., pH: 7.0 to 7.4). The culture media were treated with phenformin hydrochloride and the compounds synthesized in the examples at contents of 1 μM and 10 μM, respectively, and then incubated for 48 hours. Metformin hydrochloride was used as the control, and the cells were treated with 1 mM and 10 mM metformin hydrochloride. After 48 hours, the cells were lysed in a cell lysis buffer containing 10 mM Tris HCl (pH7.4), 100 mM NaCl, 1 mM EDTA, 1 mM EGTA, 1 mM NaF, 20 mM Na4P2O7, 2 mM Na3VO4, 1% TritonX-100, 10% glycerol, 0.5% deoxycholate and 1 mM PMSF. Then, 25 μg of the cell lysate was electrophoresized in an SDS-PAGE gel, and then transferred to a […] membrane (commercially available from Amersham Life Science). The membrane reacted with rat monoclonal anti-human Snail (commercially available from Cell signaling Technology) or mouse monoclonal anti-β-actin (commercially available from Santa cruz Biotechnology), and unbound antibodies were removed. In this case, anti-β-actin was used as the antibody to ensure that the amount of proteins loaded into the SDS-PAGE gel is identical. The membrane was reacted again with a secondary antibody, anti-rat IgG (commercially available from Cell signaling Technology) or anti-mouse IgG (commercially available from Santa Cruz Biotechnology). Finally, the antibody bound to the membrane was detected using an ECL Plus system (commercially available from Amersham Life Science). Also, the expression level of Snail with respect to β-actin was analyzed using a Scion image analysis program. Here, when it was assumed that the expression level of the untreated control was 100%, the expression level of the Snail by treatment with the compounds synthesized in the examples was indicated as a percentage (%).
For orientation: Immunoblotting shows a protein as a band on a membrane.

The test system of experiment [2] is MCF7 cells (breast cancer stem cell, mammosphere). The experiment can be described thus: Measurement of effect of inhibiting mammosphere formation. It is filed as cell-based, human. The settings on record: MCF7, 8 days; for Number of Mammospheres: size 50 um or more; for inhibition at 0.1 µM / inhibition at 1 µM / inhibition at 5 µM / inhibition at 10 µM: Homo sapiens, 192 h, vs untreated, read-out: Mammosphere formation inhibition rate (%). The text has this:
The cancer stem cells refer to cancer cells that have self-regeneration or differentiation capacity which is characteristically innate to stem cells. Here, the cancer stem cells show resistance to conventional anticancer therapy and poor prognosis. Therefore, the biguanide derivative has an effect of inhibiting cancer recurrence by inhibiting formation and proliferation of cancer stem cells, especially, breast cancer stem cells (mammosphere). Accordingly, the effect of the biguanide derivative of inhibiting breast cancer stem cell (mammosphere) formation was measured in an MCF7 cell line derived from human breast cancer forming mammospheres, and simple experimental methods are described, as follows.
MCF7 cells derived from human breast cancer were cultured (culture temperature: 37° C., pH: 7.0 to 7.4) in a DMEM medium supplemented with 10% (v/v) fetal bovine serum (commercially available from Gibco Life Technologies (US)) so that the MCF7 cells could grow to approximately 80% confluency and used in an experiment to determine an ability to form mammospheres. After MCF7 cells were made to single cells and the number of cell was counted, MCF7 cells were put in to a 24-well plate at 2,000 cells/well. […] Also, a culture media for forming mammospheres was prepared so that a serum-free DMEM/F12 medium could include 2% B27 (commercially available from Invitrogen), 20 ng/ml EGF (commercially available from Sigma), 5 μg/ml insulin (commercially available from Sigma) and 1 μg/ml hydrocortisone (commercially available from Sigma). Cells were cultured in a CO2 incubator for 24 hours and treated with each of the compounds synthesized in the examples at contents of 0.1 μM, 1 μM, 5 μM and 10 μM. Then, the cultured cells were added to the culture media for forming mammospheres so that a final volume of the culture broth could be adjusted to 1 ml. The cells were treated with the same concentrations of phenformin hydrochloride as the control and cultured in a CO2 incubator for 8 days. Thereafter, the mammosphere-forming efficiency and size of the cells were observed. After 8 days, the number of mammospheres having a size of 50 um or more was determined to calculate the mammosphere-forming efficiency (MFE (%)). The MFE (%) is calculated according to the following Equation 1.
When the cells were cultured for 8 days, MFE (%) of the cells on a plate treated with the phenformin hydrochloride and the compounds synthesized in the examples was compared with MFE (%) of the cells on a plate that was not treated with the compounds. The results are listed as the mammosphere formation inhibition rate (%) in the following Table 4, and the mammosphere-forming efficiencies of the respective compounds are shown in FIG. 1.

By inhibition is commonly meant the change of the read-out against control, counted positive when it falls. Take `Cl.N=C(NC(=N)N1CCCCCC1)Nc1cccc(Cl)c1` [Example 21, N1-azepane-N5-(3-chloro)phenyl biguanide hydrochloride]: the “Snail Expression Rate (%)” value in experiment [1] (1 μM) worked out at 83.5%. Further, the “Snail Expression Rate (%)” value in experiment [1] (10 μM) is listed as 29.8%. In experiment [2] (0.1 μM), the “MFE (%) (mammosphere-forming efficiency)” value amounted to 5.8%, the “Number of Mammospheres” value was found to be 115 and the inhibition at 0.1 µM came to 30.1%. For the same compound, in experiment [2] (1 μM), the “MFE (%) (mammosphere-forming efficiency)” value was determined as 5.3%, the “Number of Mammospheres” value worked out at 105 and the inhibition at 1 µM is -1.9%. In experiment [2] (5 μM), the “MFE (%) (mammosphere-forming efficiency)” value was 3.6%, the “Number of Mammospheres” value stood at 71 ± 4.2 and the inhibition at 5 µM amounted to 31.1%. Further, in experiment [2] (10 μM), the “MFE (%) (mammosphere-forming efficiency)” value is listed as 2.3%, the “Number of Mammospheres” value is reported as 46 ± 2.1 and the inhibition at 10 µM was 55.8%.
For `Cl.N=C(NC(=N)N1CCCCC1)Nc1ccc(C(F)(F)F)cc1` [Example 27, N1-piperidine-N5-(4-trifluoromethyl)phenyl biguanide hydrochloride], the “Snail Expression Rate (%)” value in experiment [1] (1 μM) amounted to 52.7%. In addition, the “Snail Expression Rate (%)” value in experiment [1] (10 μM) is reported as 13.2%. In experiment [2] (0.1 μM), the “MFE (%) (mammosphere-forming efficiency)” value is listed as 5.2%, the “Number of Mammospheres” value is 103 and the inhibition at 0.1 µM worked out at 0%. Further, in experiment [2] (1 μM), the “MFE (%) (mammosphere-forming efficiency)” value is reported as 5.2%, the “Number of Mammospheres” value stood at 105 ± 16.3 and the inhibition at 1 µM is -1.5%. Moreover, in experiment [2] (5 μM), the “MFE (%) (mammosphere-forming efficiency)” value is on record as 3.0%, the “Number of Mammospheres” value is 61 ± 3.5 and the inhibition at 5 µM was 41.3%. In addition, in experiment [2] (10 μM), the “MFE (%) (mammosphere-forming efficiency)” value was determined as 1.6%, the “Number of Mammospheres” value was found to be 32 and the inhibition at 10 µM is 68.9%.
On to `Cl.N=C(NC(=N)N1CCCCC1)Nc1cccc(Cl)c1` [Example 20, N1-piperidine-N5-(3-chloro)phenyl biguanide hydrochloride], for which the “Snail Expression Rate (%)” value in experiment [1] (1 μM) worked out at 57.6%. In addition, in experiment [1] (10 μM), the “Snail Expression Rate (%)” value is reported as 8.7%. Also, in experiment [2] (0.1 μM), the “MFE (%) (mammosphere-forming efficiency)” value is recorded as 3.6%, the “Number of Mammospheres” value was determined as 72 and the inhibition at 0.1 µM is 30.1%. In experiment [2] (1 μM), the “MFE (%) (mammosphere-forming efficiency)” value is 5.2%, the “Number of Mammospheres” value came to 103 and the inhibition at 1 µM turned out to be 0%. In addition, in experiment [2] (5 μM), the “MFE (%) (mammosphere-forming efficiency)” value was 3.8%, the “Number of Mammospheres” value amounted to 75 and the inhibition at 5 µM came out at 27.2%. For the same compound, in experiment [2] (10 μM), the “MFE (%) (mammosphere-forming efficiency)” value was determined as 1.5%, the “Number of Mammospheres” value turned out to be 29 and the inhibition at 10 µM is 71.8%.
`Cl.N=C(NC(=N)N1CCCC1)Nc1ccc(C(F)(F)F)cc1` [Example 26, N1-pyrrolidine-N5-(4-trifluoromethyl)phenyl biguanide hydrochloride]: the “Snail Expression Rate (%)” value in experiment [1] (1 μM) is recorded as 57.2%. In addition, the “Snail Expression Rate (%)” value in experiment [1] (10 μM) was found to be 14.6%. Also, in experiment [2] (0.1 μM), the “MFE (%) (mammosphere-forming efficiency)” value was 5.3%, the “Number of Mammospheres” value is on record as 105 and the inhibition at 0.1 µM is -11.7%. Besides, in experiment [2] (1 μM), the “MFE (%) (mammosphere-forming efficiency)” value is listed as 5.6%, the “Number of Mammospheres” value was 112 and the inhibition at 1 µM was -8.7%. Moreover, in experiment [2] (5 μM), the “MFE (%) (mammosphere-forming efficiency)” value is reported as 6.0%, the “Number of Mammospheres” value turned out to be 120 and the inhibition at 5 µM is -16.5%. Moreover, in experiment [2] (10 μM), the “MFE (%) (mammosphere-forming efficiency)” value came to 3.6%, the “Number of Mammospheres” value is listed as 72 ± 11.3 and the inhibition at 10 µM was 30.1%.
